According to PubChem BioAssay (NCI):
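Where inhibition never reached the appropriate level, the endpoint shown equals the highest concentration tested. Otherwise, values were interpolated linearly from a five-concentration, 48-hour dose response in 96-well plates. Here, GI50 denotes the concentration required for 50% inhibition of growth. TGI is the concentration that stops growth completely.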

Assays:
Test in all cases: growth of human tumour cells (NCI), 48 h
[1] = tested on: SN12C renal
[2] = tested on: UACC-257 melanoma
[3] = tested on: EKVX NSCLC
[4] = tested on: A498 renal
[5] = tested on: T-47D breast
[6] = tested on: A549 NSCLC
[7] = tested on: NCI-H23 lung
[8] = tested on: LOX IMVI melanoma
[9] = tested on: RPMI-8226 leukemia
[10] = tested on: NCI-H226 lung

| Structure (SMILES) | TGI [1] [µM] | TGI [2] [µM] | TGI [3] [µM] | TGI [4] [µM] | TGI [5] [µM] | TGI [6] [µM] | TGI [7] [µM] | TGI [8] [µM] | TGI [9] [µM] | TGI [10] [µM] | GI50 [1] [µM] | GI50 [2] [µM] | GI50 [3] [µM] | GI50 [4] [µM] | GI50 [5] [µM] | GI50 [6] [µM] | GI50 [7] [µM] | GI50 [8] [µM] | GI50 [9] [µM] | GI50 [10] [µM] |
| --- | --- | --- | --- | --- | --- | --- | --- | --- | --- | --- | --- | --- | --- | --- | --- | --- | --- | --- | --- | --- |
| CCN(C(=O)N[C@@H](C)C(=O)N[C@@H](Cc1ccccc1)C(=O)OC)c1ccccc1 | 73.2 | > 100 | > 100 | > 100 | > 100 | > 100 | > 100 | > 100 | > 100 | > 100 | – | – | – | – | – | – | – | – | – | – |
| O=C(CCSC1=NCCCN1)c1ccc(F)cc1 | 43.6 | 36.5 | 27.5 | 44.2 | > 70.6 | 40.3 | 43.4 | 45.1 | 14.8 | 41.9 | – | – | – | – | – | – | – | – | – | – |
| CCOC(=O)CC/C(=N/Nc1ccc(Cl)cc1[N+](=O)[O-])C(=O)OCC | > 100 | > 100 | > 100 | > 100 | > 100 | > 100 | > 100 | > 100 | > 100 | > 100 | – | – | – | – | – | – | – | – | – | – |
| Cc1cc(OP2(=O)NCc3ncccc3O2)ccc1Cl (centres undefined) | > 100 | > 100 | > 100 | > 100 | > 100 | > 100 | > 100 | > 100 | > 100 | > 100 | – | – | – | – | – | – | – | – | – | – |
| Cc1cc(C[C@H]2O[C@@H]3OC(C)(C)O[C@@H]3[C@H]3OC(C)(C)O[C@H]32)c2ccccc2n1 | > 100 | > 100 | > 100 | > 100 | > 100 | > 100 | > 100 | > 100 | > 100 | > 100 | – | – | – | – | – | – | – | – | – | – |
| COc1cc2c(cc1OCCCCCN1CCN(c3ncnc4ccccc34)CC1)N=CC1CCCN1C2=O (centres undefined) | 4.65 | 0.568 | 0.724 | 0.034 | 0.0428 | 25.8 | 0.196 | – | 0.035 | 0.0479 | 0.03 | 0.0738 | 0.114 | 0.018 | 0.0139 | 0.0307 | 0.0342 | 0.0167 | < 0.0138 | 0.0203 |
| COc1cc(O)c2c(=O)c(OC)c(-c3ccc(OC)c(O)c3)oc2c1 | > 100 | > 100 | > 100 | 15.3 | > 100 | > 100 | > 100 | > 100 | > 100 | > 100 | – | – | – | – | – | – | – | – | – | – |
| CC(C)(CO)CNc1nc(N)nc(Cl)c1/C=N/O | > 100 | > 100 | > 100 | > 100 | 38.9 | > 100 | > 100 | > 100 | > 100 | > 100 | – | – | – | – | – | – | – | – | – | – |
| CC1OC(O[C@H]2C3C=CO[C@@H](OC4OC(CO)C(O)C(O)C4O)C3[C@@]3(COC(=O)/C=C/c4ccccc4)O[C@@H]23)C(O)C(O)C1O (some centres undefined) | > 100 | > 100 | > 100 | > 100 | > 100 | > 100 | > 100 | > 100 | > 100 | > 100 | – | – | – | – | – | – | – | – | – | – |
| CCOC(=O)c1c2cccccc-2nc1Nc1cccc2c(C)ccnc12 | > 10 | > 10 | > 10 | > 10 | > 10 | > 10 | > 10 | > 10 | > 10 | > 10 | – | – | – | – | – | – | – | – | – | – |
| O=C1CSC2(CC(/C=C/c3cccs3)=NN2c2cccc(S(=O)(=O)O)c2)N1c1nc2ccccc2s1 (centres undefined) | > 100 | > 100 | > 100 | 92.7 | 80.2 | > 100 | > 100 | > 100 | > 100 | > 100 | – | – | – | – | – | – | – | – | – | – |
| Cc1c2c(c(C)n1-c1ccccc1)C(=O)N(CCN1CCN(c3cccc(C(F)(F)F)c3)CC1)C2=O | > 100 | > 100 | > 100 | > 100 | > 100 | > 100 | > 100 | > 100 | > 100 | > 100 | – | – | – | – | – | – | – | – | – | – |
| Cn1ncc2c(NCc3ccccc3)ncnc21 | > 100 | > 100 | > 100 | > 100 | > 100 | > 100 | > 100 | > 100 | > 100 | > 100 | – | – | – | – | – | – | – | – | – | – |
| Cc1cc(N(C)C)c2ccccc2[n+]1CCCCCCCCCC[n+]1c(C)cc(N(C)C)c2ccccc21 | 4.72 | 2.3 | 35.3 | 14 | 15.2 | 18 | 5.32 | 3.24 | 4.33 | > 100 | – | – | – | – | – | – | – | – | – | – |
| c1ccc(C(C(=Nc2ccc(Cc3ccc(N=C(C(c4ccccc4)c4ccccc4)N4CC4)cc3)cc2)N2CC2)c2ccccc2)cc1 | 32.3 | 25.6 | 25.9 | 29.1 | 16.5 | 22.3 | 30.8 | 18.9 | 39.5 | 38.3 | – | – | – | – | – | – | – | – | – | – |
| COc1cc(Nc2ccc3c(c2)CCC3)nc(OC)n1 | > 100 | > 100 | > 100 | > 100 | > 100 | > 100 | > 100 | > 100 | 40.9 | > 100 | – | – | – | – | – | – | – | – | – | – |
| CC(C)N1CCN(c2ccc(OCC3COC(Cn4cncn4)(c4ccc(Cl)cc4Cl)O3)cc2)CC1 (centres undefined) | 30.7 | 3.77 | 30.6 | 27.4 | 47.8 | > 52 | 30.9 | 30.2 | 29.7 | 30.1 | – | – | – | – | – | – | – | – | – | – |
